Reference: the supplement of paper PMC10307832

How the values were obtained:
Assay in all cases: relative viability (nuclei count vs DMSO), 5 days (fraction); higher = more cells survive
Elesclomol + Trametinib = compound: CN(NC(=O)CC(=O)NN(C)C(=S)c1ccccc1)C(=S)c1ccccc1 [Elesclomol] + CC(=O)Nc1cccc(-n2c(=O)n(C3CC3)c(=O)c3c(Nc4ccc(I)cc4F)n(C)c(=O)c(C)c32)c1 [Trametinib] (partner 0.02 µM)
Summary of the method: (§1)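 A single step with final 0.05% Triton X-100, 1% formaldehyde and 1 ug/ml Hoechst fixed the cells and stained nuclei 5 days after treatment. Lung cancer cell lines in 1536-well plates had been treated by pin tool the day after seeding with one drug alone or a fixed anchor-drug dose plus five library-drug doses (not always all listed) in √10 steps, and nuclei were counted on 4× images. Relative viability is the ratio of nuclei in treated wells to nuclei in vehicle wells, taken as the median of duplicate plates.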

Elesclomol + Navitoclax = compound: CN(NC(=O)CC(=O)NN(C)C(=S)c1ccccc1)C(=S)c1ccccc1 [Elesclomol] + CC1(C)CCC(c2ccc(Cl)cc2)=C(CN2CCN(c3ccc(C(=O)NS(=O)(=O)c4ccc(N[C@H](CCN5CCOCC5)CSc5ccccc5)c(S(=O)(=O)C(F)(F)F)c4)cc3)CC2)C1 [Navitoclax] (partner 0.5 µM)
Summary of the method: as §1

Elesclomol + OSI-027 = compound: CN(NC(=O)CC(=O)NN(C)C(=S)c1ccccc1)C(=S)c1ccccc1 [Elesclomol] + COc1cccc2cc(-c3nc([C@H]4CC[C@H](C(=O)O)CC4)n4ncnc(N)c34)[nH]c12 [OSI-027] (partner 0.5 µM)
Summary of the method: as §1

Elesclomol + Tozasertib = compound: CN(NC(=O)CC(=O)NN(C)C(=S)c1ccccc1)C(=S)c1ccccc1 [Elesclomol] + Cc1cc(Nc2cc(N3CCN(C)CC3)nc(Sc3ccc(NC(=O)C4CC4)cc3)n2)n[nH]1 [Tozasertib] (partner 0.1 µM)
Summary of the method: as §1

Elesclomol + Olaparib = compound: CN(NC(=O)CC(=O)NN(C)C(=S)c1ccccc1)C(=S)c1ccccc1 [Elesclomol] + O=C(c1cc(Cc2n[nH]c(=O)c3ccccc23)ccc1F)N1CCN(C(=O)C2CC2)CC1 [Olaparib] (partner 8 µM)
Summary of the method: as §1

| Cell Line | relative viability (Elesclomol + Trametinib; first compound 0.003162 µM) | relative viability (Elesclomol + Trametinib; first compound 0.01 µM) | relative viability (Elesclomol + Trametinib; first compound 0.03162 µM) | relative viability (Elesclomol + Trametinib; first compound 0.1 µM) | relative viability (Elesclomol + Navitoclax; first compound 0.003162 µM) | relative viability (Elesclomol + Navitoclax; first compound 0.03162 µM) | relative viability (Elesclomol + Navitoclax; first compound 0.1 µM) | relative viability (Elesclomol + OSI-027; first compound 0.003162 µM) | relative viability (Elesclomol + OSI-027; first compound 0.01 µM) | relative viability (Elesclomol + OSI-027; first compound 0.03162 µM) | relative viability (Elesclomol + OSI-027; first compound 0.1 µM) | relative viability (Elesclomol + Tozasertib; first compound 0.003162 µM) | relative viability (Elesclomol + Tozasertib; first compound 0.01 µM) | relative viability (Elesclomol + Tozasertib; first compound 0.03162 µM) | relative viability (Elesclomol + Tozasertib; first compound 0.1 µM) | relative viability (Elesclomol + Olaparib; first compound 0.003162 µM) | relative viability (Elesclomol + Olaparib; first compound 0.01 µM) | relative viability (Elesclomol + Olaparib; first compound 0.03162 µM) | relative viability (Elesclomol + Olaparib; first compound 0.1 µM) | relative viability (Elesclomol + Navitoclax; first compound 0.01 µM) |
| --- | --- | --- | --- | --- | --- | --- | --- | --- | --- | --- | --- | --- | --- | --- | --- | --- | --- | --- | --- | --- |
| NCI-H23 | 0.426 | 0.404 | 0.208 | 0.117 | 0.799 | 0.761 | 0.144 | 0.66 | 0.298 | 0.601 | 0.312 | 0.349 | 0.311 | 0.36 | 0.128 | 0.3 | 0.267 | 0.187 | 0.0908 |  |
| NCI-H322M | 0.497 | 0.423 | 0.298 | 0.217 | 1.27 | 1.06 | 0.858 | 0.565 | 0.328 | 0.268 | 0.116 | 0.335 | 0.275 | 0.186 | 0.122 | 0.665 | 0.572 | 0.388 | 0.208 |  |
| NCI-H441 | 0.498 | 0.456 | 0.418 | 0.0766 | 0.712 | 0.253 | 0.103 | 0.563 | 0.37 | 0.327 | 0.103 | 0.546 | 0.794 | 0.332 | 0.1 | 0.48 | 0.602 | 0.311 | 0.148 | 0.469 |
| NCI-H460 | 0.117 | 0.203 | 0.0139 | 0.0132 | 0.997 | 0.0164 | 0.0095 | 0.619 | 0.276 | 0.101 | 0.0137 | 0.497 | 0.365 | 0.116 | 0.0193 | 0.421 | 0.251 | 0.194 | 0.0303 | 0.379 |
| NCI-H520 | 0.789 | 0.65 | 0.301 | 0.137 | 1.08 | 0.587 | 0.162 | 0.23 | 0.293 | 0.224 | 0.14 | 0.442 | 0.355 | 0.223 | 0.181 | 0.333 | 0.32 | 0.152 | 0.0887 | 0.939 |
| NCI-H596 | 0.798 | 0.865 | 0.368 | 0.237 | 0.912 | 0.877 | 0.189 | 0.8 | 0.694 | 0.757 | 0.206 | 0.925 | 0.828 | 0.598 | 0.178 | 0.672 | 0.608 | 0.503 | 0.258 | 0.941 |
| NCI-H647 | 0.553 | 0.347 | 0.235 | 0.148 | 1.05 | 0.191 | 0.0372 | 0.603 | 0.368 | 0.161 | 0.203 | 0.388 | 0.212 | 0.0671 | 0.0175 | 0.547 | 0.357 | 0.128 | 0.0704 | 0.665 |
| NCI-H727 | 0.412 | 0.362 | 0.394 | 0.376 | 0.368 | 0.109 | 0.0643 | 0.641 | 0.426 | 0.394 | 0.251 | 0.661 | 0.357 | 0.424 | 0.249 | 0.587 | 0.7 | 0.712 | 0.416 | 0.213 |
| NCI-H838 | 0.56 | 0.494 | 0.518 | 0.216 | 1.15 | 0.962 | 0.739 | 0.331 | 0.407 | 0.378 | 0.286 | 0.282 | 0.25 | 0.18 | 0.172 | 0.765 | 0.721 | 0.488 | 0.215 | 1.06 |
| NCI-H1355 | 0.434 | 0.408 | 0.356 | 0.159 | 1.03 | 0.469 | 0.14 | 0.448 | 0.266 | 0.27 | 0.186 | 0.505 | 0.538 | 0.332 | 0.173 | 0.724 | 0.648 | 0.347 | 0.209 | 0.705 |
| NCI-H1395 | 1.01 | 0.626 | 0.294 | 0.215 | 1.09 | 0.286 | 0.469 | 0.706 | 0.435 | 0.398 | 0.227 | 0.832 | 0.461 | 0.243 | 0.276 | 0.449 | 0.364 | 0.254 | 0.22 | 0.475 |
| NCI-H1437 | 0.504 | 0.424 | 0.339 | 0.275 | 1.02 | 0.474 | 0.455 | 0.71 | 0.568 | 0.406 | 0.363 | 0.348 | 0.344 | 0.252 | 0.23 | 0.555 | 0.461 | 0.379 | 0.359 | 0.67 |
| NCI-H1650 | 0.202 | 0.188 | 0.116 | 0.102 | 0.734 | 0.168 | 0.0893 | 0.221 | 0.201 | 0.151 | 0.132 | 0.227 | 0.168 | 0.139 | 0.136 | 0.583 | 0.291 | 0.145 | 0.0879 | 0.331 |
| NCI-H1651 | 0.854 | 0.842 | 0.858 | 0.538 | 0.971 | 0.137 | 0.0728 | 0.523 | 0.527 | 0.259 | 0.102 | 0.6 | 0.601 | 0.116 | 0.108 | 0.185 | 0.184 | 0.192 | 0.135 | 0.525 |
| NCI-H1666 | 0.801 | 0.675 | 0.689 | 0.662 | 0.825 | 0.227 | 0.15 | 0.807 | 0.654 | 0.464 | 0.465 | 0.579 | 0.457 | 0.375 | 0.403 | 0.666 | 0.703 | 0.662 | 0.603 | 0.299 |
